Columns and labels:
streptavidin = streptavidin (Streptomyces avidinii, UniProt P22629); assay: Non-specific interaction with protein (streptavidin), consecutive G50 gel filtration spin columns; assay type: binding; conditions: second and third consecutive gel filtration spin columns after conjugation of activated ester to streptavidin
Procedure: It was therefore important to determine the tendency of the novel ligands to non-specifically interact with proteins. Sulfo-NHS ester and NHS ester derivatives of compound 5 were synthesized and conjugated to streptavidin. For comparison, the NHS ester of ligand 2 was also conjugated to streptavidin. Streptavidin was equilibrated in carbonate buffer, pH 9, at a concentration of approximately 130 μM. A DMF solution of the activated esters of each ligand was added to the protein at a final concentration of approximately 1 mM. The mixtures were allowed to incubate at 4° C. for 1 h. The metal is added either before or after conjugation of the ligand to the protein. Non-conjugated ligand was separated from conjugated protein using a G50 gel filtration centrifugal spin column technique (Penefsky, H. S, Methods Enzymol 1979, 56:527-30). This technique dilutes protein solutions to a lesser extent than conventional gel filtration techniques. Consecutive spin columns were run on a single protein sample solution to evaluate the extent of non-specific absorption of ligand. Following a single gel filtration separation, most of the excess ligand is removed and left at the top of the gel bed. A second spin column treatment should leave no further ligand at the top of the second column unless non-covalent association of the ligand with the protein occurs.

[1] = Kinetic stability of Tb complexes in various media at room temperature; conditions: 5 nM Tb-complex, various media incl. 1% acetic acid and 1 mM EDTA, 0.05% Tween-80, room temperature
Procedure: In order to investigate the stability of macrocyclic ligands further, the stabilities of different Tb-complexes were determined using a variety of different media, including 1% acetic acid and 1 mM EDTA. […] Each stock solution was then diluted 200× into different test solutions in polypropylene microcentrifuge tubes to a final concentration of 5 nM Tb-complex. Each test solution also contained 0.05% Tween-80. The test solutions were allowed to incubate at room temperature. Samples were taken at indicated time points, evaluated in triplicate and luminescence was recorded using standard time-resolved luminescence settings and 340 nm and 490 excitation and emission filters, respectively.

streptavidin, sequence (P22629 25-183): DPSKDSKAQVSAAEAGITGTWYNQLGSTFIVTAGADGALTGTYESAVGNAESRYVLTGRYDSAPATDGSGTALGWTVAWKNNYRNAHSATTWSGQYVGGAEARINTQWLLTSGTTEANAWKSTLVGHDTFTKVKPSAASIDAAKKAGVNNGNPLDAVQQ

SMILES	residual luminescence of ligand left at the top of the gel bed (streptavidin)	stability of terbium complex compared to non-restrained ligand (1) [1]
CNC(=O)c1cc(C(=O)NC)c(O)c(C(=O)NCCN(CCNC(=O)c2cc(C(=O)NC)cc(C(=O)NC)c2O)CCN(CCNC(=O)c2cc(C(=O)NC)cc(C(=O)NC)c2O)CCNC(=O)c2cc(C(=O)NCCC(=O)O)cc(C(=O)NC)c2O)c1 [compound 2, reference compound]	high degree of residual luminescence	
NCCN1CCNC(=O)c2cccc(c2O)C(=O)NCCN(CCNC(=O)c2cccc(C(N)=O)c2O)CCN2CCNC(=O)c3cccc(c3O)C(=O)NCCN(CCNC(=O)c3cccc(c3O)C(=O)NCC2)CC1 [compound 3]		significant increase in stability
O=C(O)CCCC(=O)NCCCCC1CN2CCNC(=O)c3cccc(c3O)C(=O)NCCN(CCNC(=O)c3cccc(c3O)C(=O)N1)CCN1CCNC(=O)c3cccc(c3O)C(=O)NCCN(CCNC(=O)c3cccc(c3O)C(=O)NCC1)CC2 (stereo not drawn) [compound 5a, GlutarLysBH(2,2)IAM]		significant increase in stability

From patent publication US8729258B2, “Luminescent macrocyclic lanthanide complexes” (The Regents of the University of California, priority 2006, dated 2014)
